Experimental data as given in patent US20230312528A1, “2-OXO-IMIDAZOLIDINE-4-CARBOXAMIDES AS NAV1.8 INHIBITORS” (Merck Sharp & Dohme LLC, priority 2020, published 2023).

Target: human NaV1.8 (Homo sapiens (Human), UniProt Q9Y5Y9)
Assay: Nav1.8 Qube automated patch-clamp assay
Type: cell-based
Conditions: human NaV1.8 stably expressed in HEK 293 cells; automated 384-well patch-clamp; resting or inactivated state not specified
Outline: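 Human NaV1.8 in HEK293 cells, automated whole-cell patch clamp at room temperature: 1 Hz train of ten 20 ms pulses to 10 mV from −90 mV, repolarization to −67 mV. First- and tenth-pulse peak currents gave resting and inactivated-state IC50 values via Hill fits.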

Sequence of human NaV1.8 (Q9Y5Y9 whole entry): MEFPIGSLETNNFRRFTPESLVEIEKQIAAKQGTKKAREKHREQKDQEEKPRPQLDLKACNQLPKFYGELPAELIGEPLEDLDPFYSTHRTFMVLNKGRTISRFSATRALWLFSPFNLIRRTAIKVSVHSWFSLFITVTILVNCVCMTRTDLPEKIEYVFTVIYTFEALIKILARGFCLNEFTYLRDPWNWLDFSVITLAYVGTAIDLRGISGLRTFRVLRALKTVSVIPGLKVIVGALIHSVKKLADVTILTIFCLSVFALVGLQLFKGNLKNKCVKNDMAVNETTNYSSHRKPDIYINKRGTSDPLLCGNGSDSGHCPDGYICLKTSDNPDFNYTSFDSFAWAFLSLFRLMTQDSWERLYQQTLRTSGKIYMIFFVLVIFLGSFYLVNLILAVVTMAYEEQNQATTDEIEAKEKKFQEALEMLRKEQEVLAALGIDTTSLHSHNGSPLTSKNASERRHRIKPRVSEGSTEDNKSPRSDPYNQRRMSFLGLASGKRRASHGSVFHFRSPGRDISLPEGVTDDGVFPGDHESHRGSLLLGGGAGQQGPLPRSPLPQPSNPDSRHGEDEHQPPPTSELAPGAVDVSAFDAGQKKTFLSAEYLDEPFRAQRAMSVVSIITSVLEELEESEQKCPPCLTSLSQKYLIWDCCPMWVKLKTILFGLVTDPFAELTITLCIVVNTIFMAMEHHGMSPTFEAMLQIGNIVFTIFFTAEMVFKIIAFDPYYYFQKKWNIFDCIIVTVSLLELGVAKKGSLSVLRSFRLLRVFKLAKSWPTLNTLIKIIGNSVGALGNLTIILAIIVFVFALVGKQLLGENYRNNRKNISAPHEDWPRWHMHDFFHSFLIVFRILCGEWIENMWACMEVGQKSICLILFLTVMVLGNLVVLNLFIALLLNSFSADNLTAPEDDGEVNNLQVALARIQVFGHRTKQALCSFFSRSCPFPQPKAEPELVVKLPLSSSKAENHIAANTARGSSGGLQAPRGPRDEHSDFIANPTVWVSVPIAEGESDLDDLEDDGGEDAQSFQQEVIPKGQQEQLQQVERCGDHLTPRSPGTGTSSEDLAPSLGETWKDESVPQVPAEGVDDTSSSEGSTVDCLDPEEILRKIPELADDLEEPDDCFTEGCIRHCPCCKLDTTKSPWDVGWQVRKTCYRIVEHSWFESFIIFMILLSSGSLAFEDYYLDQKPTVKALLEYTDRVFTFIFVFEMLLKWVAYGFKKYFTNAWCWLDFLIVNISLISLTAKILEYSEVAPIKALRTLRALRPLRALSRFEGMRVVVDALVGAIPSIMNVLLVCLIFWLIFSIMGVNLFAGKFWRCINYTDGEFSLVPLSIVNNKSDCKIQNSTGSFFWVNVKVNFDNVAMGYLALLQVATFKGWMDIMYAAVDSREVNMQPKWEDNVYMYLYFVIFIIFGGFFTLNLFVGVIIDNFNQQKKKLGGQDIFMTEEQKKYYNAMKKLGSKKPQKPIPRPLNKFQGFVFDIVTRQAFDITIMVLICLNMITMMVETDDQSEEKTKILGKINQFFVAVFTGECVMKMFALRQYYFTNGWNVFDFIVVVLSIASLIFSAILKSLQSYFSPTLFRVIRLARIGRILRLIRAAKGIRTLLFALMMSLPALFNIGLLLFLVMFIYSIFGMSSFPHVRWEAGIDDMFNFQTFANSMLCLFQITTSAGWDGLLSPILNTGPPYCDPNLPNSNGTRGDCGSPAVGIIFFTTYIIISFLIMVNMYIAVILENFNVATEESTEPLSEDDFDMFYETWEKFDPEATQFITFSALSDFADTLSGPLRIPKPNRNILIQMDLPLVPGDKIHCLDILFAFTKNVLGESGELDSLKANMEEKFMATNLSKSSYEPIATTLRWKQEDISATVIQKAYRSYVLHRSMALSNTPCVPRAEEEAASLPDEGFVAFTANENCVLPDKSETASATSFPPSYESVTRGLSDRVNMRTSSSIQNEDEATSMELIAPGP

Row | Structure (SMILES) | IC50
1 | CN1CCC(C(NC(=O)[C@@H]2CNC(=O)N2)c2ccc(F)c(Cl)c2F)CC1C(F)(F)F (single isomer, unassigned) [Example 78D, (S)-N-((R or S)-(3-chloro-2,4-difluoro-phenyl)((cis or trans)-1-methyl-2-(trifluoro-methyl)piperidin-4-yl)methyl)-2-oxoimidazolidine-4-carboxamide] | 4660 nM
2 | O=C1NC[C@@H](C(=O)NC(c2ccc(F)c(Cl)c2)c2ccn(CC(F)(F)F)n2)N1 (single isomer, unassigned) [Example 28B, (4S)-N-{(R or S)-(3-chloro-4-fluorophenyl)[1-(2,2,2-trifluoroethyl)-1H-pyrazol-3-yl]methyl}-2-oxoimidazolidine-4-carboxamide] | 436 nM
3 | O=C1NC[C@@H](C(=O)NC(CC2CCCOC2)c2ccc(F)c(Cl)c2F)N1 (single isomer, unassigned) [Example 26D, (S)-N-((R or S)-1-(3-chloro-2,4-difluorophenyl)-2-((R or S)-tetrahydro-2H-pyran-3-yl)ethyl)-2-oxoimidazolidine-4-carboxamide] | 7830 nM
4 | CC1(C(=O)NC(c2ccc(Cl)cc2)c2ccc(Cl)cc2)NC(=O)NC1=O (single isomer, unassigned) [Example 20A, (R or S)—N-(bis(4-chlorophenyl)methyl)-4-methyl-2,5-dioxoimidazolidine-4-carboxamide] | 19200 nM
5 | N#Cc1cccc(C(NC(=O)[C@@H]2CNC(=O)N2)c2ccc(F)c(Cl)c2)n1 (single isomer, unassigned) [Example 12B, (4S)-N-[((R or S)-3-chloro-4-fluorophenyl)(6-cyanopyridin-2-yl)methyl]-2-oxoimidazolidine-4-carboxamide] | 1420 nM
6 | Cn1nc(C(NC(=O)[C@@H]2CNC(=O)N2)c2ccc(Cl)cc2)cc1C(F)(F)F (single isomer, unassigned) [Example 75A] | 58 nM
7 | O=C1NC[C@@H](C(=O)NC(c2cnc(C3CC3)c(Cl)c2)c2ccc(F)c(Cl)c2F)N1 (single isomer, unassigned) [Example 13B, (4S)-N-[((R or S)-5-chloro-6-cyclo-propylpyridin-3-yl)(3-chloro-2,4-difluoro-phenyl)methyl]-2-oxoimidazolidine-4-carboxamide] | 38 nM
8 | O=C1NC[C@@H](C(=O)NC(c2ccc(Cl)cc2)c2cc(C(F)(F)F)c(F)cn2)N1 (single isomer, unassigned) [Example 59A, (S)-N-((R or S)-(4-chlorophenyl)(5-fluoro-4-(trifluoromethyl)pyridin-2-yl)methyl)-2-oxoimidazolidine-4-carboxamide] | 44 nM
9 | CN1CC(C(=O)NC(c2ccc(Cl)cc2)c2ccc(Cl)cc2)NC1=O (single isomer, unassigned) [Example 10B, (R or S)-N-[bis(4-chlorophenyl)methyl]-1-methyl-2-oxoimidazolidine-4-carboxamide] | 504 nM
10 | CC1(C)CC(C(NC(=O)[C@@H]2CNC(=O)N2)c2ccc(Cl)cc2)CCN1CC(F)(F)F (single isomer, unassigned) [Example 91D, (4S)—N—((R or S)(4-chlorophenyl)((R or S)2,2-dimethyl-1-(2,2,2-trifluoroethyl)piperidin-4-yl)methyl)-2-oxoimidazolidine-4-carboxamide] | 458 nM
11 | O=C1NC[C@@H](C(=O)NC(c2ccc(F)c(Cl)c2F)C2COC(C(F)(F)F)C2)N1 (single isomer, unassigned) [Example 79F, (S)-N-((R or S)-(3-chloro-2,4-difluoro-phenyl)((cis or trans)-5-(trifluoromethyl)tetrahydrofuran-3-yl)methyl)-2-oxoimidazolidine-4-carboxamide] | 520 nM
12 | O=C(NC(c1ccc(Cl)cc1)c1ccc(Cl)cc1)C1CNC(=O)N1CCO (single isomer, unassigned) [Example 21A, (R or S)—N-(bis(4-chlorophenyl)methyl)-3-(2-hydroxyethyl)-2-oxoimidazolidine-4-carboxamide] | 209 nM
13 | O=C1NC[C@@H](C(=O)NC(c2ccc(F)c(Cl)c2)c2ccc(F)c(OCC(F)(F)F)n2)N1 (single isomer, unassigned) [Example 11A, (4S)-N-{((R or S)-3-chloro-4-fluorophenyl)[5-fluoro-6-(2,2,2-trifluoro-ethoxy)pyridin-2-yl]methyl}-2-oxoimidazolidine-4-carboxamide] | 50 nM
14 | O=C1NC[C@@H](C(=O)NC(c2ccc(F)c(Cl)c2F)[C@@H]2CC[C@@H](C(F)(F)F)CO2)N1 (single isomer, unassigned) [Example 8C, (S)—N—((R or S)-(3-chloro-2,4-difluorophenyl)((trans)-5-(trifluoromethyl)tetrahydro-2H-pyran-2-yl)methyl)-2-oxoimidazolidine-4-carboxamide] | 23 nM
15 | O=C1NC[C@@H](C(=O)NC(c2ccc(F)c(Cl)c2F)C2COC(C(F)(F)F)C2)N1 (single isomer, unassigned) [Example 79D, (S)-N-((R or S)-(3-chloro-2,4-difluoro-phenyl)((cis or trans)-5-(trifluoromethyl)tetrahydrofuran-3-yl)methyl)-2-oxoimidazolidine-4-carboxamide] | 3680 nM
16 | Cc1nc2ccc(C(NC(=O)[C@@H]3CNC(=O)N3)c3ccc(Cl)cc3)cc2o1 (single isomer, unassigned) [Example 83B, (S)-N-((R or S)-(4-chlorophenyl)(2-methylbenzo[d]oxazol-6-yl)methyl)-2-oxoimidazolidine-4-carboxamide] | 201 nM
17 | O=C1NC[C@@H](C(=O)NC(c2ccc(F)c(Cl)c2)C2C3CN(CC(F)(F)F)CC32)N1 (single isomer, unassigned) [Example 77A, (4S)-N-((1(R or S))-(3-chloro-4-fluorophenyl)(3-(2,2,2-trifluoroethyl)-3-azabicyclo[3.1.0]hexan-6-yl)methyl)-2-oxoimidazolidine-4-carboxamide] | 26 nM
18 | CN1CC(C(=O)NC(c2ccc(Cl)cc2)c2ccc(Cl)cc2)NC1=O (single isomer, unassigned) [Example 10A, (R or S)-N-[bis(4-chlorophenyl)methyl]-1-methyl-2-oxoimidazolidine-4-carboxamide] | 1070 nM
19 | O=C1NC[C@@H](C(=O)NC(c2ccc(F)c(Cl)c2)C2Cc3ccc(F)cc32)N1 (stereo partly drawn) [Example 69, (4S)-N-((3-chloro-4-fluorophenyl)(4-fluorobicyclo[4.2.0]octa-1(6),2,4-trien-7-yl)methyl)-2-oxoimidazolidine-4-carboxamide] | 141 nM

Compounds with a lower IC50, results first:

Row | IC50 | Structure (SMILES)
20 | 9.2 nM | O=C1NC[C@@H](C(=O)NC(c2cnc(OCC(F)(F)F)cn2)c2ccc(F)c(Cl)c2F)N1 (single isomer, unassigned) [Example 51A, N—((R or S)-(3-chloro-2,4-difluorophenyl)(5-(2,2,2-trifluoroethoxy)pyrazin-2-yl)methyl)-2-oxoimidazolidine-4-carboxamide]
21 | 0.7 nM | O=C1NC[C@@H](C(=O)NC(c2ccc(F)c(Cl)c2)c2ccc(F)c(Cl)c2)N1 [Example 61, (S)-N-(bis(3-chloro-4-fluorophenyl)methyl)-2-oxoimidazolidine-4-carboxamide]
22 | 1.1 nM | O=C1NC[C@@H](C(=O)NC(c2cnc(C3CC3)c(Cl)c2)c2ccc(F)c(Cl)c2F)N1 (single isomer, unassigned) [Example 13A, (4S)-N-[((R or S)-5-chloro-6-cyclo-propylpyridin-3-yl)(3-chloro-2,4-difluoro-phenyl)methyl]-2-oxoimidazolidine-4-carboxamide]
23 | 2.4 nM | O=C1NC[C@@H](C(=O)NC(c2cnc(C(F)(F)F)c(Cl)c2)c2ccc(F)c(C(F)(F)F)n2)N1 (single isomer, unassigned) [Example 14A, (4S)-N-{[(R or S)-5-chloro-6-(trifluoro-methyl)pyridin-3-yl][5-fluoro-6-(trifluoro-methyl)pyridin-2-yl]methyl}-2-oxoimidazolidine-4-carboxamide]
24 | 0.6 nM | O=C1NC[C@@H](C(=O)NC(c2ccc(Cl)cc2)c2ccc(F)c(C(F)(F)F)c2)N1 (single isomer, unassigned) [Example 17A, (S)-N-((R or S)-(4-chlorophenyl)(4-fluoro-3-(trifluoro-methyl)phenyl)methyl)-2-oxoimidazolidine-4-carboxamide]
25 | 2 nM | O=C1NC[C@@H](C(=O)NC(c2ccc(OC(F)(F)F)cc2)c2cccc(Cl)c2)N1 (single isomer, unassigned) [Example 9A, (4S)—N—((R or S)-(3-chlorophenyl)(4-(trifluoromethoxy)phenyl)methyl)-2-oxoimidazolidine-4-carboxamide]
26 | 3.1 nM | O=C1NC[C@@H](C(=O)NC(c2ccc(OC(F)(F)F)nc2)c2ccc(F)c(Cl)c2F)N1 (single isomer, unassigned) [Example 24A, (4S)-N-{(R or S)-(3-chloro-2,4-difluorophenyl)[6-(trifluoromethoxy)pyridin-3-yl]methyl}-2-oxoimidazolidine-4-carboxamide]
27 | 5.8 nM | O=C1NC[C@@H](C(=O)NC(c2ccc(F)c(Cl)c2F)C23CC(C(F)(F)F)(C2)C3)N1 (single isomer, unassigned) [Example 27A, (4S)—N—((R or S)-(3-chloro-2,4-difluorophenyl)(3-(trifluoromethyl)bicyclo[1.1.1]pentan-1-yl)methyl)-2-oxoimidazolidine-4-carboxamide]
28 | 3.9 nM | O=C1NC[C@@H](C(=O)NC(c2ccc(F)c(Cl)c2)c2ccc(F)c(OCC(F)(F)F)n2)N1 (single isomer, unassigned) [Example 11B, (4S)-N-{((R or S)-3-chloro-4-fluoro-phenyl)[5-fluoro-6-(2,2,2-trifluoro-ethoxy)pyridin-2-yl]methyl}-2-oxoimidazolidine-4-carboxamide]
29 | 10 nM | O=C1NC[C@@H](C(=O)NC(c2ccc(OC(F)(F)F)nc2)c2ccc(F)c(C(F)(F)F)n2)N1 (single isomer, unassigned) [Example 45A, (S)-N-((R or S)-(5-fluoro-6-(trifluoro-methyl)pyridin-2-yl)(6-(trifluoromethoxy)pyridin-3-yl)methyl)-2-oxoimidazolidine-4-carboxamide]
